Key:
Type in all cases: in vivo
[1] = tested on: crabgrass (Digitaria sanguinalis L.): DIGSA; assay: Test Example 1 pre-emergence herbicidal activity, DIGSA; conditions: Rate 63 g a.i./ha, visually observed 20th to 23rd day after application
How it was run: (§1)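 Pots of upland soil were sown, and one day later WP or EC formulations at set active-ingredient rates were sprayed pre-emergence in 500 L/ha water. Growth control scored visually 20–23 days after application, 0 (as untreated) to 100 (complete kill).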

[2] = tested on: barnyardgrass (Echinochloa crus-galli L.): ECHCG; assay: Test Example 1 pre-emergence herbicidal activity, ECHCG; conditions: Rate 63 g a.i./ha, visually observed 20th to 23rd day after application
How it was run: as §1

[3] = tested on: rice (Oryza sativa L.): ORYSA; assay: Test Example 1 pre-emergence herbicidal activity, ORYSA; conditions: Rate 63 g a.i./ha, visually observed 20th to 23rd day after application
How it was run: as §1

[4] = tested on: rice (Oryza sativa L.), ORYSA; assay: Test Example 2 post-emergence (foliage treatment) herbicidal activity, ORYSA; conditions: 63 g a.i./ha
How it was run: (§2)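 Plants grown in upland soil pots were sprayed on foliage at set leaf stages (ECHCG 1.1-2.1, DIGSA 1.0-2.0, AMARE 0.1-1.5, ORYSA 1.0-2). Formulated compound was applied at predetermined active-ingredient amounts in 500 L/ha water with 0.1% (v/v) spreader. Growth control (0–100%) was visually scored 20–23 days later.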

[5] = tested on: soybean (Glycine max Merr.), GLXMA; assay: Test Example 2 post-emergence (foliage treatment) herbicidal activity, GLXMA; conditions: 63 g a.i./ha
How it was run: (§3)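 Foliar spray of formulated compound (500 L/ha dilution water, 0.1% v/v spreader) onto young potted plants at defined leaf stages. Scored 0-100% by visual inspection 20-23 d post-spray.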

[6] = tested on: wheat (Triticum aestivum L.): TRZAX; assay: Test Example 1 pre-emergence herbicidal activity, TRZAX; conditions: Rate 63 g a.i./ha, visually observed 20th to 23rd day after application
How it was run: as §1

[7] = tested on: crabgrass (Digitaria sanguinalis L.), DIGSA; assay: Test Example 2 post-emergence (foliage treatment) herbicidal activity, DIGSA; conditions: 63 g a.i./ha
How it was run: as §2

[8] = tested on: redroot pigweed (Amaranthus retroflexus L.), AMARE; assay: Test Example 2 post-emergence (foliage treatment) herbicidal activity, AMARE; conditions: 63 g a.i./ha
Source text: Upland field soil was put into a 1/170,000 ha pot, and seeds of various plants were sown. Then, when the plants reached predetermined leaf stages {1. barnyardgrass (Echinochloa crus-galli L.), ECHCG: 1.1-2.1 leaf stage, 2. crabgrass (Digitaria sanguinalis L.), DIGSA: 1.0-2.0 leaf stage, 3. green foxtail (Setaria viridis L.), SETVI: 1.0-2.2 leaf stage, 4. redroot pigweed (Amaranthus retroflexus L.), AMARE: 0.1-1.5 leaf stage, 5. prickly sida (Sida spinosa L.), SIDSP: 0.1-0.6 leaf stage, 6. velvetleaf (Abutilon theophrasti), ABUTH: 0.1-0.6 leaf stage, 7. common cocklebur (Xanthium strumarium L.), XANST: 0.1 leaf stage, 8. rice (Oryza sativa L.), ORYSA; 1.0-2 leaf stage, 9. wheat (Triticum aestivum L.), TRZAX: 2.3-3.5 leaf stage, 10. corn (Zea mays L.), ZEAMXN 2.1-2.6 leaf stage, 11. soybean (Glycine max Merr.), GLXMA: primary leaf stage}, a wettable powder or emulsifiable concentrate having the compound of the present invention formulated in accordance with a usual formulation method, was weighed so that the active ingredient would be a predetermined amount, and diluted with water in an amount of 500 L/ha. To the diluted solution, 0.1% (v/v) of an agricultural spreader was added. The herbicide adjusted was applied by a small size sprayer for foliage treatment. On the 20th to 23rd day after the application of the herbicide, the growth of the respective plants was visually observed, and the herbicidal effects were evaluated by growth controlling degrees (%) ranging from 0 (equivalent to the untreated control) to 100 (complete kill), whereby the results shown in Table 5, were obtained. Compound Nos. in Table 5 correspond to Compound Nos. in Table 1 and 2 given hereinbefore.

[9] = tested on: corn (Zea mays L.): ZEAMX; assay: Test Example 1 pre-emergence herbicidal activity, ZEAMX; conditions: Rate 63 g a.i./ha, visually observed 20th to 23rd day after application
How it was run: as §1

[10] = tested on: green foxtail (Setaria viridis L.), SETVI; assay: Test Example 2 post-emergence (foliage treatment) herbicidal activity, SETVI; conditions: 63 g a.i./ha
How it was run: as §3

[11] = tested on: barnyardgrass (Echinochloa crus-galli L.), ECHCG; assay: Test Example 2 post-emergence (foliage treatment) herbicidal activity, ECHCG; conditions: 63 g a.i./ha
How it was run: as §2

[12] = tested on: green foxtail (Setaria viridis L.): SETVI; assay: Test Example 1 pre-emergence herbicidal activity, SETVI; conditions: Rate 63 g a.i./ha, visually observed 20th to 23rd day after application
How it was run: as §1

[13] = tested on: prickly sida (Sida spinosa L.): SEDSP; assay: Test Example 1 pre-emergence herbicidal activity, SIDSP; conditions: Rate 63 g a.i./ha, visually observed 20th to 23rd day after application
How it was run: as §1

[14] = tested on: redroot pigweed (Amaranthus retroflexus L.): AMARE; assay: Test Example 1 pre-emergence herbicidal activity, AMARE; conditions: Rate 63 g a.i./ha, visually observed 20th to 23rd day after application
How it was run: as §1

[15] = tested on: soybean (Glycine max Merr.): GLXMA; assay: Test Example 1 pre-emergence herbicidal activity, GLXMA; conditions: Rate 63 g a.i./ha, visually observed 20th to 23rd day after application
How it was run: as §1

[16] = tested on: wheat (Triticum aestivum L.), TRZAX; assay: Test Example 2 post-emergence (foliage treatment) herbicidal activity, TRZAX; conditions: 63 g a.i./ha
How it was run: as §3

[17] = tested on: velvetleaf (Abutilon theophrasti), ABUTH; assay: Test Example 2 post-emergence (foliage treatment) herbicidal activity, ABUTH; conditions: 63 g a.i./ha
How it was run: as §3

[18] = tested on: corn (Zea mays L.), ZEAMX; assay: Test Example 2 post-emergence (foliage treatment) herbicidal activity, ZEAMX; conditions: 63 g a.i./ha
How it was run: as §3

[19] = tested on: velvetleaf (Abutilon theophrasti): ABUTH; assay: Test Example 1 pre-emergence herbicidal activity, ABUTH; conditions: Rate 63 g a.i./ha, visually observed 20th to 23rd day after application
How it was run: as §1

| SMILES | Pre-emergence Herbicidal Activity DIGSP (growth controlling degree) [1] [%] | Pre-emergence Herbicidal Activity ECHCG (growth controlling degree) [2] [%] | Pre-emergence Herbicidal Activity ORYSA (growth controlling degree) [3] [%] | growth controlling degree, ORYSA [4] [%] | growth controlling degree, GLXMA [5] [%] | Pre-emergence Herbicidal Activity TRZAX (growth controlling degree) [6] [%] | growth controlling degree, DIGSP [7] [%] | growth controlling degree, AMARE [8] [%] | Pre-emergence Herbicidal Activity ZEAMX (growth controlling degree) [9] [%] | growth controlling degree, SETVI [10] [%] | growth controlling degree, ECHCO [11] [%] | Pre-emergence Herbicidal Activity SETVI (growth controlling degree) [12] [%] | Pre-emergence Herbicidal Activity SIDSP (growth controlling degree) [13] [%] | Pre-emergence Herbicidal Activity AMARE (growth controlling degree) [14] [%] | Pre-emergence Herbicidal Activity GLXMA (growth controlling degree) [15] [%] | growth controlling degree, TRZAX [16] [%] | growth controlling degree, ABUTH [17] [%] | growth controlling degree, ZEAMX [18] [%] | Pre-emergence Herbicidal Activity ABUTH (growth controlling degree) [19] [%] |
| --- | --- | --- | --- | --- | --- | --- | --- | --- | --- | --- | --- | --- | --- | --- | --- | --- | --- | --- | --- |
| CCOC(=O)C(C)Nc1c(OC)c(Cl)cc(F)c1-c1nn(C)c(OC(F)F)c1Cl (stereo not shown) [Compound 1-76] | 100 | 60 | 10 | 80 | 70 | 0 | 70 | 100 | 0 | 80 | 100 | 60 | 60 | 100 | 0 | 40 | 100 | 90 | 40 |
| COc1c(Cl)cc(F)c(-c2nn(C)c(OC(F)F)c2Cl)c1NC(=O)c1cccc(C(F)(F)F)c1 [Compound 1-262] | 30 | 0 | 10 | 30 | 50 | 0 | 40 | 100 | 0 | 80 | 60 | 30 | 30 | 100 | 0 | 30 | 100 | 40 | 20 |
| COc1c(Cl)cc(F)c(-c2nn(C)c(OC(F)F)c2Cl)c1NC(=O)CCC1CCCCC1 [Compound 1-259] | 20 | 10 | 0 | 10 | 10 | 10 | 30 | 100 | 0 | 50 | 50 | 30 | 30 | 100 | 0 | 0 | 100 | 0 | 0 |
| COc1c(Cl)cc(F)c(-c2nn(C)c(OC(F)F)c2Cl)c1NC(=O)C(C)(C)OC(C)=O [Compound 1-44] | 100 | 10 | 10 | 50 | 40 | 10 | 60 | 100 | 0 | 80 | 50 | 20 | 100 | 100 | 0 | 20 | 100 | 10 | 60 |
| COc1c(Cl)cc(F)c(-c2nn(C)c(OC(F)F)c2Cl)c1NC(=O)c1cccc(C)c1 [Compound 1-260] | 100 | 60 | 50 | 60 | 70 | 30 | 95 | 100 | 10 | 100 | 100 | 100 | 70 | 100 | 0 | 40 | 100 | 60 | 40 |
| COc1c(Cl)cc(F)c(-c2nn(C)c(OC(F)F)c2Cl)c1NC(=O)COCc1ccccc1 [Compound 1-45] | 90 | 0 | 30 | 80 | 60 | 10 | 70 | 100 | 0 | 90 | 95 | 40 | 0 | 100 | 0 | 40 | 100 | 40 | 30 |
| COc1c(Cl)cc(F)c(-c2nn(C)c(OC(F)F)c2Cl)c1NC(=O)C1CC1 [Compound 1-264] | 100 | 100 | 50 | 80 | 70 | 20 | 100 | 100 | 0 | 100 | 80 | 60 | 100 | 100 | 0 | 40 | 100 | 50 | 80 |

— patent US20050245399A1, “Pyrazole derivatives as herbicidal compositions containing them” (ISHIHARA SANGYO KAISHA, LTD., priority 2004, published 2005)
